According to patent US8691789B2, “Probe of iodine-123 marker thymidine (FLT)analogue [123I]-IaraU” (Atomic Energy Council-Institute of Nuclear Research, priority 2012, dated 2014):
“Also recorded” adds a separate entry of the source.

Key:
Format in all cases: cell-based
NG4TL4-wild type cells = assay: cellular uptake experiment of [^123I]-IaraU in NG4TL4-wild type cells
Experimental: (§1) Please refer to FIG. 3 which is a schematic view of experimental results of cell absorption of [^123I]-IaraU according to the invention. As shown, the present invention utilizes the above synthesized iodine-123 marker FLT analogue for in vitro experiments which totally use cells of NG4TL4-wild type, NG4TL4-HSVtk, NG4TL4-sr39tk. They are cultivated in the DMEM (Dulbecco's Modified Eagle's Medium) medium containing 10% fetal bovine serum at 37° C. and in the environment having 5% carbon dioxide. Then they are planted in 96-well plate at the proportion of 1×10^5 cells/well for 12 hours, and then subjected to biological experiments.
(§2) Before the cellular uptake experiment starts, 1 mCi of the above [^123I]-IaraU 8 or [^18F]-FLT (from INER) is thoroughly mixed with 50 ml of serum-free DMEM medium. The cultivated medium on the 96-well plate is drained out, and the aforementioned cultivated medium mixed with radioactive material is immediately added material with the ratio of 200 μl/well. The cells to which the cultivated medium has been added are placed back to an incubator of 5% CO2 at 37° C. […] Finally, a Gamma-Counter is used to measure the radioactivity of cytoplasm for each individual supernatant. The formula for analysis is as follows: (Radioactivity of cytoplasm/Activity as whole)×100%.

NG4TL4-HSVtk cells = assay: cellular uptake experiment of [^123I]-IaraU in NG4TL4-HSVtk cells
Experimental: as §1, §2

NG4TL4-sr39tk cells = assay: cellular uptake experiment of [^123I]-IaraU in NG4TL4-sr39tk cells
Experimental: as §1, §2

[1] = after five hours, % of the total amount
[2] = time points 0.25, 0.5, 1.5, 3 and 5 hours

O=c1[nH]c(=O)n([C@@H]2O[C@H](CO)C(O)C2O)cc1[123I] (stereo partly drawn) [[^123I]-IaraU, 1-(β-D-arabinofuranosyl)-5-[^123I]iodopyrimidin-2,4(3H)-dione]
maximum intake (radioactivity of cytoplasm/activity as whole ×100%) (NG4TL4-wild type cells; [1]): not more than 10%
cellular uptake over time (in words) (NG4TL4-wild type cells; [2]): no significant intake; also recorded: no significant increase in quantity
maximum intake (radioactivity of cytoplasm/activity as whole ×100%) (NG4TL4-HSVtk cells; [1]): not more than 10%
cellular uptake over time (in words) (NG4TL4-HSVtk cells; [2]): no significant intake; also recorded: no significant increase in quantity
maximum intake (radioactivity of cytoplasm/activity as whole ×100%) (NG4TL4-sr39tk cells; [1]): not more than 10%
cellular uptake over time (in words) (NG4TL4-sr39tk cells; [2]): no significant intake; also recorded: no significant increase in quantity
